Data taken from PMC7279216, “Identification of Inhibitors to Trypanosoma cruzi Sirtuins Based on Compounds Developed to Human Enzymes” (International Journal of Molecular Sciences, 2020).
Like-named read-outs stand apart in the source and are kept apart here.

Assays:
[1] = Host cell cytotoxicity in high content assay; settings: human
[2] = test system: T. cruzi Y H10 strain; experiment: High content assay (HCA), T. cruzi in vitro infection of U2OS cells; format: cell-based, Trypanosoma cruzi; settings: for EC50: read-out: EC50 Value (reduces 50% of infected cells number); for SI (selectivity index = CC50/EC50): U2OS CC50 / T. cruzi EC50
[3] = target: TcSir2rp3 (Trypanosoma cruzi, UniProt Q4E5B9); experiment: biochemical; settings: for inhibition at 5 µM: read-out: % of inhibition of TcSir2rp3 deacetylase activity
[4] = test system: SIRT2; parameters: method as in ref 22, 27 and unpublished results; settings: 27 and unpublished results, cited from earlier work; for IC50: read-out: IC50 against human SIRT2
[5] = test system: SIRT1; parameters: method as in ref 22, 27 and unpublished results; settings: 27 and unpublished results, cited from earlier work; for IC50: read-out: IC50 against human SIRT1
[6] = test system: T. cruzi Y H10 strain; experiment: Combinatory high content assay of SIRTi with BZN, T. cruzi in vitro infection; format: cell-based, Trypanosoma cruzi; settings: for combinatory effect with benznidazole, overall: combination with BZN; for trypanocidal activity of SIRTi+BZN compared to BZN alone / trypanocidal activity of SIRTi+BZN compared to SIRTi alone: combination with BZN at constant EC50 ratios
[7] = target: TcSir2rp1 (Trypanosoma cruzi, UniProt Q4DP02); experiment: biochemical; format: biochemical; settings: for inhibition of TcSir2rp1 deacetylase activity: 5 µM
[8] = test system: SIRT5; parameters: method as in ref 27 and unpublished results; settings: ref 27 and unpublished results; cited from earlier work
[9] = U2OS cells infected with T. cruzi Y H10 trypomastigotes
[10] = Trypanosoma cruzi, U2OS, 96 h, U2OS cells infected with T. cruzi, 96 hours incubation
[11] = Ratio 1, EC50 ratio 1/32 (BZN 0.8 µM)
[12] = Ratio 2, EC50 ratio 1/16 (BZN 1.5 µM)
[13] = Ratio 3, EC50 ratio 1/8 (BZN 3 µM)
[14] = Ratio 4, EC50 ratio 1/4 (BZN 6 µM)
[15] = Ratio 5, EC50 ratio 1/2 (BZN 12 µM)
[16] = Ratio 6, EC50 ratio 1 (BZN 24 µM)
[17] = Ratio 7, EC50 ratio 2 (BZN 48 µM)

Chain of TcSir2rp3 (Q4E5B9 entry or part of it): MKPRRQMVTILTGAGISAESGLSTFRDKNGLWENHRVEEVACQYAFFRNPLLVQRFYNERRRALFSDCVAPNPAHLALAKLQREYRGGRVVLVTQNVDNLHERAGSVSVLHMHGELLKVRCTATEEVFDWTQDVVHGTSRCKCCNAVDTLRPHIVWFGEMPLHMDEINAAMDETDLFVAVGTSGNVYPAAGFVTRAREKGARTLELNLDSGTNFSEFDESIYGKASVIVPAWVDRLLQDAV
Chain of TcSir2rp1 (Q4DP02 entry or part of it): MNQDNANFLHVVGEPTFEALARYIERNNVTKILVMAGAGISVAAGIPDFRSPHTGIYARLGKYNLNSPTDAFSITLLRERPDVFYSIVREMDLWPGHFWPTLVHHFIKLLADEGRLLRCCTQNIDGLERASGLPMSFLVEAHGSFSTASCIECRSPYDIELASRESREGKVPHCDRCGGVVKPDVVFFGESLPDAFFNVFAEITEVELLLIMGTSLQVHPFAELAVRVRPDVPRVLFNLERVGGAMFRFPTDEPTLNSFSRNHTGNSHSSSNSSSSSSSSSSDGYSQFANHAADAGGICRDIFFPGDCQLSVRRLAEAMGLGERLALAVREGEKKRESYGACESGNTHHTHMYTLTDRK

Structure (SMILES)	CC50 at 96 h [1, 9] [µM]	EC50 ([2]; Trypanosoma cruzi, U2OS, 96 h) [µM]	SI (selectivity index = CC50/EC50) [2]	inhibition at 5 µM [3] [%]	IC50 ([3]; read-out: TcSir2rp3 IC50 ± SD) [µM]	IC50 [4] [µM]	EC50 [2, 10] [µM]	IC50 [5] [µM]	combinatory effect with benznidazole, overall [6]	trypanocidal activity of SIRTi+BZN compared to BZN alone [6]	IC50 against human SIRT2 [4]	inhibition of TcSir2rp1 deacetylase activity [7]	other results
O=C(Cn1ccnc1[N+](=O)[O-])NCc1ccccc1 [BZN, benznidazole, reference compound]	> 200	1.96	> 102	–	–	–	–	–	–	–	–	–	–
CC(CSc1cccc(/N=C/c2c(O)ccc3ccccc23)c1)c1ccccc1 (stereo not shown) [Compound 8]	76.8	–	1.89	> 30	18.8 ± 5.34	~20	40.6	~40	–	–	–	–	–
O=c1[nH]c(SCc2ccc3ccccc3c2)nc(-c2ccccc2)c1Cc1c(O)ccc2ccccc12 [Compound 12]	48.8	–	1.38	> 30	14.3 ± 6.06	6.3	35.4	> 150	low or no synergism	no difference	single-digit micromolar	–	type of interaction with BZN ([6]; 1/4 ratio): synergistic effect; CI (combinatory index) with BZN [6, 11]: 6.6; CI (combinatory index) with BZN [6, 12]: 13.2; CI (combinatory index) with BZN [6, 13]: 1.02; CI (combinatory index) with BZN [6, 14]: 0.82; CI (combinatory index) with BZN [6, 15]: 1.14; CI (combinatory index) with BZN [6, 16]: 1.48; CI (combinatory index) with BZN [6, 17]: 2.29; type of interaction with BZN ([6]; ratios 1/8, 1/2 and 1/1): additive effect; type of interaction with BZN ([6]; ratios lower than 1/8): antagonistic effect
O=C(CSc1nc(-c2ccccc2)c(Cc2c(O)ccc3ccccc23)c(=O)[nH]1)c1ccccc1 [Compound 13]	> 100	–	> 2.2	> 30	18.5 ± 1.97	–	45.1	> 150	–	–	single-digit micromolar	–	–
CCCCCSc1nc(-c2ccccc2)c(Cc2c(O)ccc3ccccc23)c(=O)[nH]1 [Compound 15]	36.4	–	1.89	–	–	–	19.4	> 150	–	–	single-digit micromolar	inhibited TcSir2rp1 activity	IC50 [7]: 32.4 ± 7.88 µM; EC50 ([2]; U2OS cells infected with T. cruzi, 96 hours incubation): 19.4 µM
O=c1[nH]c(N/N=C/c2ccc([N+](=O)[O-])cc2)nc(-c2ccccc2)c1Cc1c(O)ccc2ccccc12 [Compound 17]	19.6	–	2.31	–	–	~50	8.5	~50	synergistic effects	no increase in trypanocidal activity	–	inhibited TcSir2rp1 activity	CI (combinatory index) with BZN [6, 11]: 0.38; CI (combinatory index) with BZN [6, 12]: 0.69; CI (combinatory index) with BZN [6, 13]: 0.73; CI (combinatory index) with BZN [6, 14]: 0.74; CI (combinatory index) with BZN [6, 15]: 1.25; CI (combinatory index) with BZN [6, 16]: 2.45; CI (combinatory index) with BZN [6, 17]: 3.52; trypanocidal activity of SIRTi+BZN compared to SIRTi alone [6]: increase in the trypanocidal activity; type of interaction with BZN ([6]; ratios 1/2, 1, and 2): antagonistic effect; type of interaction with BZN ([6]; ratios lower than 1/4): tendency towards a synergistic effect; IC50 [7]: 25.5 ± 4.73 µM
CCOC(=O)/C(=C\c1cc(C(=O)c2ccccc2OC)c[nH]1)C(=O)Nc1cccc2ncccc12 [Compound 27]	46.9	–	8.18	–	–	10.5	5.73	–	–	–	–	did not show potent inhibitory effect	% of inhibition of TcSir2rp3 deacetylase activity ([3]; 5 µM): did not show potent inhibitory effect
CCN1C(=O)/C(=C\c2ccc(-c3ccc(Cl)c(Cl)c3)o2)C(=O)NC1=S [Compound 30]	–	42.7	–	> 30	–	–	–	–	–	–	single-digit micromolar	–	IC50 against human SIRT5 [8]: single-digit micromolar; CC50 at 96 h [1]: > 100 µM; IC50 against human SIRT1 [5]: single-digit micromolar
CCCN1C(=O)/C(=C\c2ccc(-c3ccc(Cl)c(Cl)c3)o2)C(=O)NC1=S [Compound 31]	–	–	–	–	–	–	–	–	–	–	–	–	IC50 [3]: 16.3 ± 9.54 µM
C=CCN1C(=O)/C(=C\c2ccc(-c3ccc(Cl)c(Cl)c3)o2)C(=O)NC1=S [Compound 32]	–	39.8	–	> 30	–	–	–	–	synergistic effects	not if compared to BZN alone	single-digit micromolar	–	IC50 [3]: 16.4 ± 6.7 µM; IC50 against human SIRT5 [8]: single-digit micromolar; CC50 at 96 h [1]: 77 µM; type of interaction with BZN ([6]; all concentration ratios lower than 1/2): synergistic effect; trypanocidal activity of SIRTi+BZN compared to SIRTi alone [6]: increased the trypanocidal activity; IC50 against human SIRT1 [5]: single-digit micromolar
